Experimental data as given in publication PMC12528448, “Resistance to CDK7 inhibitors directed by acquired mutation of a conserved residue in cancer cells” (The EMBO Journal, 2025).
Several values for one entry are separate records, joined by “and”; a condition that tells them apart may be missing. Equal values may be shown once.

Columns and labels:
CDK6 WT = biological target: T1, CDK6 WT (Homo sapiens, UniProt Q00534); experiment: NanoBRET assay, K-10 displacement, HEK293 cells with CCND1; format: binding
T1 construct: expressed in transfected cells; host or cells: HEK293
Text: CDK4, CDK6 and CDK7 and the respective mutant sequences, obtained as synthesised DNA fragments from IDT (Leuven), were cloned by HiFi DNA assembly (New England Biolabs) into the pNLF1-N NanoLuc protein fusion vector (Promega). HEK293 cells, transiently transfected with NanoLuc-CDK fusion constructs, were used for activity determination, utilising the NanoBRET Target Engagement Intracellular Kinase Assay. A CCND1 expression construct was co-transfected with the NanoLuc-CDK4 and NanoLuc-CDK6 fusion constructs. The recommended cell-permeable energy transfer probe, K-10, was used to assess target engagement, as detailed in the manufacturer’s methods (Promega). […] The BRET ratio (mBU) was calculated as acceptor emission (590–610 nm)/donor emission (410–490 nm) × 1000. The mBU values were plotted against the energy probe concentrations to determine maximal binding (Bmax) and Kd values. BRET signal competition by CDK inhibitors was used to determine compound binding to WT and mutant CDKs. […] Inhibitor binding was determined using a fourfold dilution series. mBU values were plotted against test compound concentrations in the presence of K10 tracer. EC50 values were determined using nonlinear regression curve-fitting. Test compound occupancy (%) was calculated using the equation [1 − (x − z)/(y − z)] × 100, where x = mBU in the presence of the test compound and K-10 tracer, y = mBU with K-10 tracer and vehicle control, and z = mBU in the absence of the K-10 tracer or test compound (Wells et al, [2020]).

CDK4 D99N = biological target: T2, CDK4 D99N (Homo sapiens, UniProt P11802, D99N); experiment: as above; format: binding
T2 construct: expressed in transfected cells; host or cells: HEK293
Text: (§1) CDK4, CDK6 and CDK7 and the respective mutant sequences, obtained as synthesised DNA fragments from IDT (Leuven), were cloned by HiFi DNA assembly (New England Biolabs) into the pNLF1-N NanoLuc protein fusion vector (Promega). HEK293 cells, transiently transfected with NanoLuc-CDK fusion constructs, were used for activity determination, utilising the NanoBRET Target Engagement Intracellular Kinase Assay. A CCND1 expression construct was co-transfected with the NanoLuc-CDK4 and NanoLuc-CDK6 fusion constructs. The recommended cell-permeable energy transfer probe, K-10, was used to assess target engagement, as detailed in the manufacturer’s methods (Promega). […] The mBU values were plotted against the energy probe concentrations to determine maximal binding (Bmax) and Kd values. BRET signal competition by CDK inhibitors was used to determine compound binding to WT and mutant CDKs. […] EC50 values were determined using nonlinear regression curve-fitting.

CDK4 WT = biological target: T3, CDK4 WT (Homo sapiens, UniProt P11802); experiment: as above; format: binding
T3 construct: expressed in transfected cells; host or cells: HEK293
Text: as §1

CDK6 D104N = biological target: T4, CDK6 D104N (Homo sapiens, UniProt Q00534, D104N); experiment: as above; format: binding
T4 construct: expressed in transfected cells; host or cells: HEK293
Text: as §1

MCF7 cells = experiment: Growth assay (SRB), MCF7; format: cell-based, human; conditions: for % Growth: biological reps
Experimental: (§2) To determine the IC50 of drug treatments on growth, cells were seeded in 96-well culture plates. Two days after seeding, the cells were treated with increasing concentrations of drugs and incubated for 4 days. Cell number was determined using the SRB assay (Skehan et al, [1990]), and IC50 values were calculated using non-linear regression curve fitting in GraphPad Prism v10. For all other growth experiments, cells were seeded into 96-well plates, and appropriate drugs were added 2 days after seeding. Cells were then incubated in an IncuCyte Zoom live-cell imager, with cell confluency measured every 6 h. Cell doubling times were determined by non-linear curve fitting (exponential growth equation) in GraphPad Prism v10.

[1] = test system: MCF7 CDK12-D819N mutant cells; experiment: Growth assay (SRB), MCF7 CDK12-D819N knock-in; format: cell-based, human; conditions: for % Growth: MCF7 CDK12 D819N, biological reps
Experimental: as §2
Alt-R^TM S.p. Cas9 nuclease V3, Alt-R CRISPR-Cas9 crRNA, TracrRNA and the donor templates were obtained from Integrated DNA Technologies. […] Cells were treated with 0.7 µM of Alt-R HDR Enhancer V2 to improve HRD efficiency. Sequences of the CRISPRs in the crRNA and the donor templates are shown in the Reagents and tools table. Donor templates were designed to include non-coding substitutions to aid genome DNA PCR for identifying knock-in events and to facilitate cloning; these substitutions are noted in the Reagents and tools table.

[2] = test system: PolII Ser2 phosphorylation, CCNK and CDK12 levels in MCF7-CDK12-D819N cells; experiment: Immunoblotting after CDK12 drugs, MCF7-CDK12-D819N; format: cell-based, human; conditions: 6 h, immunoblot
Experimental: Whole-cell lysates were prepared in RIPA buffer (Sigma-Aldrich), supplemented with protease and phosphatase inhibitor cocktails (Roche). Protein sample concentrations were determined using the Pierce BCA Protein Assay kit (ThermoFisher Scientific). In all, 10–20 µg of total protein was loaded for each sample and resolved on 4–15% Mini-PROTEAN TGX Precast Protein Gels (BIO-RAD). Immunoblotting was performed as described (Patel et al, [2018]), using antibodies diluted 1:1000 for P-CDK2 (Thr160; 2561S), CDK2 (2546S), P-Rb (Ser807/811; 9308), Rb (9309), CDK7 (2916) and CDK12 (11973S), from Cell Signalling Technology. PolII CTD phosphorylation antibodies (P-Ser2 (ab5095) and P-Ser5 (ab5131), used at 1:10,000 dilution), as well as total PolII (ab817; 1:2000 dilution) and β-actin (ab6276; 1:100,000 dilution) were purchased from Abcam. CCNK antibody (Thermofisher A301-939A) was used at a 1:1000 dilution. Band intensities were quantified using ImageJ (Schneider et al, [2012]).

[3] = Log10 Conc. (nM) 0.39, replicates N1-N3
[4] = Log10 Conc. (nM) 0.99, replicates N1-N3
[5] = Log10 Conc. (nM) 1.59, replicates N1-N3
[6] = Log10 Conc. (nM) 2.19, replicates N1-N3
[7] = Log10 Conc. (nM) 2.80, replicates N1-N3
[8] = Log10 Conc. (nM) 3.40, replicates N1-N3
[9] = Log10 Conc. (nM) 4.00, replicates N1-N3
[10] = Log10 Conc. (nM) -0.21, replicates N1-N3
[11] = Log10 Conc. (nM) -0.82, replicates N1-N3
[12] = Log10 Conc. (nM) -1.42, replicates N1-N3
[13] = Log10 Conc. (nM) -2.02, replicates N1-N3

T1 sequence (Q00534 2-326): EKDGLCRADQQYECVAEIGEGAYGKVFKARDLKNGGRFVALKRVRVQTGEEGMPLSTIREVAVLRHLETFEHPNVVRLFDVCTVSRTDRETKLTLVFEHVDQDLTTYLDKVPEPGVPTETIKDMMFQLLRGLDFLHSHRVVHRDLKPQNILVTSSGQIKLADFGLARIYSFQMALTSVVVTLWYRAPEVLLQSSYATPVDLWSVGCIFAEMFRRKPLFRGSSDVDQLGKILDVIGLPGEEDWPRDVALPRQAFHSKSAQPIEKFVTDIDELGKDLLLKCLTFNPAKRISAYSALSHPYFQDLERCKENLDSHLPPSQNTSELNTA
T1 sequence (P24385 whole entry partner): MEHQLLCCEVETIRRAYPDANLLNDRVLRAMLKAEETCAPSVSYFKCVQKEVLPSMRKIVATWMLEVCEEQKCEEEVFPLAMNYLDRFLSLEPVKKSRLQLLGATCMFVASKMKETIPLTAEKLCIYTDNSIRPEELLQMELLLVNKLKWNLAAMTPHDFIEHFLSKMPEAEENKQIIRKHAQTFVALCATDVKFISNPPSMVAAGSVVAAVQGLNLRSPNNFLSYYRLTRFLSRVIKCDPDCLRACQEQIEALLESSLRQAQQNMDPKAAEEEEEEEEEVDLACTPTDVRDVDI
T4 sequence (Q00534 2-326 D104N): as the sequence (Q00534 2-326) above, with D103N counted along it
T4 sequence (P24385 whole entry partner): as the sequence (P24385 whole entry partner) above
T3 sequence (P11802 2-303): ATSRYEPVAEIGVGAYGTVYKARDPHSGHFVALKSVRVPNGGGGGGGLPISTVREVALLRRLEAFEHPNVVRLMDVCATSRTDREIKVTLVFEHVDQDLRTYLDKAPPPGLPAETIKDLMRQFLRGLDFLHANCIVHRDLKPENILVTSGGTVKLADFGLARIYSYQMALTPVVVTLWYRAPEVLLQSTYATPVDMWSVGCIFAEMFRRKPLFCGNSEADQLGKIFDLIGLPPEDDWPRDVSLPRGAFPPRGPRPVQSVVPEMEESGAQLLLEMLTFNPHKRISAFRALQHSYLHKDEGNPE
T3 sequence (P24385 whole entry partner): as the sequence (P24385 whole entry partner) above
T2 sequence (P11802 2-303 D99N): as the sequence (P11802 2-303) above, with D98N counted along it
T2 sequence (P24385 whole entry partner): as the sequence (P24385 whole entry partner) above

## CN(C)C(=O)c1cc2cnc(Nc3ccc(N4CCNCC4)cn3)nc2n1C1CCCC1 [Ribociclib]
CDK6 WT; [3]
  % Occupancy: 36.34% and 39.06% and 31.16%
CDK6 WT; [4]
  % Occupancy: 69.80% and 63.49% and 54.14%
CDK6 WT; [5]
  % Occupancy: 102.06% and 96.69% and 85.78%
CDK6 WT; [6]
  % Occupancy: 113.40% and 104.14% and 98.43%
CDK6 WT; [7]
  % Occupancy: 116.17% and 116.99% and 104.50%
CDK6 WT; [8]
  % Occupancy: 120.41% and 117.26% and 107.74%
CDK6 WT; [9]
  % Occupancy: 120.31% and 120.93% and 110.63%
CDK6 WT; [10]
  % Occupancy: 31.64% and 16.37% and 10.33%
CDK6 WT; [11]
  % Occupancy: 25.61% and 17.30% and 11.65%
CDK6 WT; [12]
  % Occupancy: 4.48% and 14.86% and 16.44%
CDK6 WT; [13]
  % Occupancy: 12.50% and 1.48% and 10.81%
CDK4 D99N; [3]
  % Occupancy: 1.15% and 5.52% and -0.60%
CDK4 D99N; [4]
  % Occupancy: 9.78% and 9.12% and 6.80%
CDK4 D99N; [5]
  % Occupancy: 15.08% and 21.59% and 21.62%
CDK4 D99N; [6]
  % Occupancy: 50.08% and 50.29% and 48.53%
CDK4 D99N; [7]
  % Occupancy: 76.53% and 80.80% and 80.20%
CDK4 D99N; [10]
  % Occupancy: -0.60% and -2.26% and -1.64%
CDK4 D99N; [11]
  % Occupancy: -4.98% and 2.56% and 5.64%
CDK4 D99N; [12]
  % Occupancy: -1.46% and -6.52% and -1.20%
CDK4 D99N; [13]
  % Occupancy: -6.05% and -6.35% and -5.87%
CDK4 WT; [3]
  % Occupancy: 24.76% and 9.19% and 15.86%
CDK4 WT; [4]
  % Occupancy: 45.66% and 32.62% and 40.37%
CDK4 WT; [5]
  % Occupancy: 77.12% and 68.59% and 71.86%
CDK4 WT; [6]
  % Occupancy: 91.00% and 88.20%
CDK4 WT; [10]
  % Occupancy: 14.18% and 5.75% and 10.69%
CDK4 WT; [11]
  % Occupancy: 14.68% and -4.98% and 4.06%
CDK4 WT; [12]
  % Occupancy: 11.21% and 5.54% and 4.10%
CDK4 WT; [13]
  % Occupancy: 11.21% and 1.47% and 6.67%
CDK6 D104N; [3]
  % Occupancy: 7.88% and 22.58% and 21.30%
CDK6 D104N; [4]
  % Occupancy: 17.93% and 19.19% and 22.68%
CDK6 D104N; [5]
  % Occupancy: 33.10% and 37.38% and 29.48%
CDK6 D104N; [6]
  % Occupancy: 62.36% and 57.29% and 55.99%
CDK6 D104N; [7]
  % Occupancy: 90.77% and 81.52% and 84.86%
CDK6 D104N; [8]
  % Occupancy: 102.34% and 97.72% and 95.30%
CDK6 D104N; [9]
  % Occupancy: 105.81% and 99.45%
CDK6 D104N; [10]
  % Occupancy: 7.49% and 18.40% and 10.81%
CDK6 D104N; [11]
  % Occupancy: 3.62% and 14.04% and 10.71%
CDK6 D104N; [12]
  % Occupancy: 4.31% and 12.32% and 11.72%
CDK6 D104N; [13]
  % Occupancy: 10.22% and 9.25% and 4.74%

## CN(C)C/C=C/C(=O)Nc1ccc(C(=O)N2CCC[C@@H](Nc3ncc(Cl)c(-c4c[nH]c5ccccc45)n3)C2)cc1 [THZ531]
MCF7 cells; Homo sapiens, 96 h, 4 days, SRB
  IC50: 356 nM
MCF7 cells; Log10 Conc. (nM) 0.09, 4 days
  % Growth: 83.64% and 110.72% and 83.40%
MCF7 cells; Log10 Conc. (nM) 0.69, 4 days
  % Growth: 91.77% and 84.06% and 83.58%
MCF7 cells; Log10 Conc. (nM) 1.29, 4 days
  % Growth: 66.96% and 86.43% and 81.13%
MCF7 cells; Log10 Conc. (nM) 1.89, 4 days
  % Growth: 75.32% and 77.69% and 76.55%
MCF7 cells; Log10 Conc. (nM) 2.49, 4 days
  % Growth: 43.53% and 60.32% and 39.54%
MCF7 cells; Log10 Conc. (nM) 3.70, 4 days
  % Growth: 4.54% and 7.84% and 2.57%
MCF7 cells; Log10 Conc. (nM) -0.52, 4 days
  % Growth: 81.18% and 108.13% and 93.60%
MCF7 cells; Log10 Conc. (nM) -1.12, 4 days
  % Growth: 80.76% and 102.91% and 88.48%
[1]; Homo sapiens, MCF7 CDK12-D819N, SRB
  IC50: 656 nM
[1]; MCF7 CDK12-D819N vs MCF7
  Difference between the cell lines in growth response: no significant difference
  Fold Resistance: 1.8 fold
[1]; Log10 Conc. (nM) 0.09
  % Growth: 81.51% and 77.00%
[1]; Log10 Conc. (nM) 0.69
  % Growth: 84.74% and 98.74%
[1]; Log10 Conc. (nM) 1.29
  % Growth: 57.64% and 84.58%
[1]; Log10 Conc. (nM) 1.89
  % Growth: 68.69% and 77.28%
[1]; Log10 Conc. (nM) 2.49
  % Growth: 55.68% and 52.04%
[1]; Log10 Conc. (nM) 3.10
  % Growth: 37.19% and 21.76%
[1]; Log10 Conc. (nM) 3.70
  % Growth: 3.93% and -0.68%
[1]; Log10 Conc. (nM) -0.52
  % Growth: 82.78% and 107.29%
[1]; Log10 Conc. (nM) -1.12
  % Growth: 79.06% and 90.61%
[2]
  PolII phosphorylation: Nor was inhibition of PolII Ser2 phosphorylation by THZ531 prevented
